Our source for the Ki values is BindingDB's records for doi:10.7270/Q2QC01XF (Nmmlsc, 2009).

The target in this assay is Ras-related protein Rab-2A (Canis lupus familiaris, UniProt P61105). As to the kind of experiment: Rab2 wildtype GTP-binding inhibitors, SAR follow-up, biochemical, additional analogs, bead-based flow cytometry, multiplex (AID 2046). A general note: Flow cytometry measures light scatter and fluorescence of single cells or particles in a stream.

Each structure is given as a SMILES string.

Broadly, the Ki is a dissociation constant, usually derived from enzyme kinetics or from competition with a known ligand.

Ras-related protein Rab-2A, sequence (P61105 whole entry): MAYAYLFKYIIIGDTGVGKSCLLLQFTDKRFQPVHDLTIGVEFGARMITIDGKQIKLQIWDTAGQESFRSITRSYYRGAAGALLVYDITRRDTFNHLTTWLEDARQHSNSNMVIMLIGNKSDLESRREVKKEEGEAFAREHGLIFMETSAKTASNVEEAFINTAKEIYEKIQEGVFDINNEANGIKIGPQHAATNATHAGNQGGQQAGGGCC

`O=C1N=c2ccc(Br)cc2=C1c1[nH]c2ccccc2c1NO` [5-bromanyl-3-[3-(oxidanylamino)-1H-indol-2-yl]indol-2-one] showed a Ki of 4.15 µM. That is a single-digit micromolar value.
For `O=C1N=c2c(Br)cccc2=C1c1[nH]c2ccccc2c1NO` [7-bromanyl-3-[3-(oxidanylamino)-1H-indol-2-yl]indol-2-one] the value was 4.19 µM.
